Assay results: patent US4868321A, “Isothiocyanate intermediates” (FMC Corporation, priority 1988, dated 1989)

How the values were obtained:
Format in all cases: in vivo
Cotton [1] = assay: Preemergence Herbicidal Activity, Cotton; settings: Gossypium hirsutum, pre-emergence
How it was run: (§1)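 Applications are made pre- or postemergence from 50/50 acetone/water solutions of each compound. Effect is recorded as % C at the stated kg/ha rate.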

Soybean [2] = assay: Preemergence Herbicidal Activity, Soybean; settings: Glycine max, pre-emergence
How it was run: (§2)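 Percent control of the crop served as the read-out, with dosing stated in kilograms per hectare.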

Field Corn [3] = assay: Preemergence Herbicidal Activity, Field Corn; settings: Zea mays, pre-emergence
How it was run: as §2

Rice [4] = assay: Preemergence Herbicidal Activity, Rice; settings: Oryza sativa, pre-emergence
How it was run: as §2

Wheat [5] = assay: Preemergence Herbicidal Activity, Wheat; settings: Triticum aestivum, pre-emergence
How it was run: as §2

Field Bindweed [6] = assay: Preemergence Herbicidal Activity, Field Bindweed; settings: pre-emergence
How it was run: as §1

Morningglory [7] = assay: Preemergence Herbicidal Activity, Morningglory; settings: Ipomoea, pre-emergence
How it was run: as §1

Velvetleaf [8] = assay: Preemergence Herbicidal Activity, Velvetleaf; settings: Abutilon theophrasti, pre-emergence
How it was run: as §1

Barnyardgrass [9] = assay: Preemergence Herbicidal Activity, Barnyardgrass; settings: Echinochloa crus-galli, pre-emergence
How it was run: (§3)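 Herbicidal response was graded as percent control. Compound rates were in kg/ha.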

Green Foxtail [10] = assay: Preemergence Herbicidal Activity, Green Foxtail; settings: Setaria viridis, pre-emergence
How it was run: as §3

Johnsongrass [11] = assay: Preemergence Herbicidal Activity, Johnsongrass; settings: Sorghum halepense, pre-emergence
How it was run: as §3

Cotton [12] = assay: Postemergence Herbicidal Activity, Cotton; settings: Gossypium hirsutum, post-emergence
How it was run: as §1

Soybean [13] = assay: Postemergence Herbicidal Activity, Soybean; settings: Glycine max, post-emergence
How it was run: as §2

Field Corn [14] = assay: Postemergence Herbicidal Activity, Field Corn; settings: Zea mays, post-emergence
How it was run: as §2

Rice [15] = assay: Postemergence Herbicidal Activity, Rice; settings: Oryza sativa, post-emergence
How it was run: as §2

Wheat [16] = assay: Postemergence Herbicidal Activity, Wheat; settings: Triticum aestivum, post-emergence
How it was run: as §2

Field Bindweed [17] = assay: Postemergence Herbicidal Activity, Field Bindweed; settings: post-emergence
How it was run: as §1

Morningglory [18] = assay: Postemergence Herbicidal Activity, Morningglory; settings: Ipomoea, post-emergence
How it was run: as §1

Velvetleaf [19] = assay: Postemergence Herbicidal Activity, Velvetleaf; settings: Abutilon theophrasti, post-emergence
How it was run: as §1

Barnyardgrass [20] = assay: Postemergence Herbicidal Activity, Barnyardgrass; settings: Echinochloa crus-galli, post-emergence
How it was run: as §3

Green Foxtail [21] = assay: Postemergence Herbicidal Activity, Green Foxtail; settings: Setaria viridis, post-emergence
How it was run: as §3

Johnsongrass [22] = assay: Postemergence Herbicidal Activity, Johnsongrass; settings: Sorghum halepense, post-emergence
How it was run: as §3

CCCn1nnn(-c2cc(N(S(=O)(=O)CC)S(=O)(=O)CC)c(Cl)cc2F)c1=O [Compound 49, 1-[4-Chloro-2-fluoro-5-[bis-(N--ethylsulfonyl)amino]phenyl]-4,5-dihydro-4-propyl-5H--tetrazol-5-one]
plant injury at 2000 g/ha (Cotton [1]; 2.0 kg/ha): 90%
plant injury at 2000 g/ha (Soybean [2]; 2.0 kg/ha): 20%
plant injury at 2000 g/ha (Field Corn [3]; 2.0 kg/ha): 90%
plant injury at 2000 g/ha (Rice [4]; 2.0 kg/ha): 70%
plant injury at 2000 g/ha (Wheat [5]; 2.0 kg/ha): 95%
pest or weed control at 2000 g/ha (Field Bindweed [6]; 2.0 kg/ha): 80%
pest or weed control at 2000 g/ha (Morningglory [7]; 2.0 kg/ha): 70%
pest or weed control at 2000 g/ha (Velvetleaf [8]; 2.0 kg/ha): 100%
pest or weed control at 2000 g/ha (Barnyardgrass [9]; 2.0 kg/ha): 100%
pest or weed control at 2000 g/ha (Green Foxtail [10]; 2.0 kg/ha): 100%
pest or weed control at 2000 g/ha (Johnsongrass [11]; 2.0 kg/ha): 80%
plant injury at 2000 g/ha (Cotton [12]; 2.0 kg/ha): 100%
plant injury at 2000 g/ha (Soybean [13]; 2.0 kg/ha): 50%
plant injury at 2000 g/ha (Field Corn [14]; 2.0 kg/ha): 80%
plant injury at 2000 g/ha (Rice [15]; 2.0 kg/ha): 50%
plant injury at 2000 g/ha (Wheat [16]; 2.0 kg/ha): 80%
pest or weed control at 2000 g/ha (Field Bindweed [17]; 2.0 kg/ha): 80%
pest or weed control at 2000 g/ha (Morningglory [18]; 2.0 kg/ha): 90%
pest or weed control at 2000 g/ha (Velvetleaf [19]; 2.0 kg/ha): 100%
pest or weed control at 2000 g/ha (Barnyardgrass [20]; 2.0 kg/ha): 95%
pest or weed control at 2000 g/ha (Green Foxtail [21]; 2.0 kg/ha): 95%
pest or weed control at 2000 g/ha (Johnsongrass [22]; 2.0 kg/ha): 90%

CS(=O)(=O)Nc1cc(-n2nnn(CCCF)c2=O)c(F)cc1Cl [Compound 2, 1-[4-chloro-2-fluoro-5-(N--methylsulfonylamino)phenyl]-1,4-dihydro-4-(3-fluoropropyl)-5H--tetrazol-5-one]
plant injury at 250 g/ha (Cotton [1]; 0.25 kg/ha): 95%
plant injury at 250 g/ha (Soybean [2]; 0.25 kg/ha): 20%
plant injury at 250 g/ha (Field Corn [3]; 0.25 kg/ha): 40%
plant injury at 250 g/ha (Rice [4]; 0.25 kg/ha): 70%
plant injury at 250 g/ha (Wheat [5]; 0.25 kg/ha): 10%
pest or weed control at 250 g/ha (Field Bindweed [6]; 0.25 kg/ha): 100%
pest or weed control at 250 g/ha (Morningglory [7]; 0.25 kg/ha): 100%
pest or weed control at 250 g/ha (Velvetleaf [8]; 0.25 kg/ha): 100%
pest or weed control at 250 g/ha (Barnyardgrass [9]; 0.25 kg/ha): 60%
pest or weed control at 250 g/ha (Green Foxtail [10]; 0.25 kg/ha): 40%
pest or weed control at 250 g/ha (Johnsongrass [11]; 0.25 kg/ha): 40%
plant injury at 250 g/ha (Cotton [12]; 0.25 kg/ha): 100%
plant injury at 250 g/ha (Soybean [13]; 0.25 kg/ha): 50%
plant injury at 250 g/ha (Field Corn [14]; 0.25 kg/ha): 80%
plant injury at 250 g/ha (Rice [15]; 0.25 kg/ha): 50%
plant injury at 250 g/ha (Wheat [16]; 0.25 kg/ha): 20%
pest or weed control at 250 g/ha (Field Bindweed [17]; 0.25 kg/ha): 100%
pest or weed control at 250 g/ha (Morningglory [18]; 0.25 kg/ha): 100%
pest or weed control at 250 g/ha (Velvetleaf [19]; 0.25 kg/ha): 100%
pest or weed control at 250 g/ha (Barnyardgrass [20]; 0.25 kg/ha): 40%
pest or weed control at 250 g/ha (Green Foxtail [21]; 0.25 kg/ha): 50%
pest or weed control at 250 g/ha (Johnsongrass [22]; 0.25 kg/ha): 50%

CS(=O)(=O)Nc1cc(-n2nnn(CCCF)c2=O)c(Cl)cc1F [Compound 38, 1-[2-Chloro-4-fluoro-5-(N--methylsulfonylamino)phenyl]-4,5-dihydro-4-(3-fluoropropyl)-5H--tetrazol-5-one]
plant injury at 1000 g/ha (Cotton [1]; 1.0 kg/ha): 70%
plant injury at 1000 g/ha (Soybean [2]; 1.0 kg/ha): 50%
plant injury at 1000 g/ha (Field Corn [3]; 1.0 kg/ha): 10%
plant injury at 1000 g/ha (Rice [4]; 1.0 kg/ha): 40%
plant injury at 1000 g/ha (Wheat [5]; 1.0 kg/ha): 10%
pest or weed control at 1000 g/ha (Field Bindweed [6]; 1.0 kg/ha): 95%
pest or weed control at 1000 g/ha (Morningglory [7]; 1.0 kg/ha): 100%
pest or weed control at 1000 g/ha (Velvetleaf [8]; 1.0 kg/ha): 100%
pest or weed control at 1000 g/ha (Barnyardgrass [9]; 1.0 kg/ha): 80%
pest or weed control at 1000 g/ha (Green Foxtail [10]; 1.0 kg/ha): 80%
pest or weed control at 1000 g/ha (Johnsongrass [11]; 1.0 kg/ha): 40%
plant injury at 1000 g/ha (Cotton [12]; 1.0 kg/ha): 95%
plant injury at 1000 g/ha (Soybean [13]; 1.0 kg/ha): 90%
plant injury at 1000 g/ha (Field Corn [14]; 1.0 kg/ha): 50%
plant injury at 1000 g/ha (Rice [15]; 1.0 kg/ha): 20%
plant injury at 1000 g/ha (Wheat [16]; 1.0 kg/ha): 50%
pest or weed control at 1000 g/ha (Field Bindweed [17]; 1.0 kg/ha): 100%
pest or weed control at 1000 g/ha (Morningglory [18]; 1.0 kg/ha): 100%
pest or weed control at 1000 g/ha (Velvetleaf [19]; 1.0 kg/ha): 100%
pest or weed control at 1000 g/ha (Barnyardgrass [20]; 1.0 kg/ha): 50%
pest or weed control at 1000 g/ha (Green Foxtail [21]; 1.0 kg/ha): 80%
pest or weed control at 1000 g/ha (Johnsongrass [22]; 1.0 kg/ha): 80%
